Results: patent US10864211B2, “Hydroxy isoxazole compounds useful as GPR120 agonists” (Merck Sharp & Dohme Corp., priority 2016, dated 2020)
Where a name gives a salt, the structure may show the parent alone.

How the values were obtained:
rat GPR120 = target: T1, rat GPR120 (Rattus norvegicus, UniProt Q2AC31); assay: Rat GPR120 IP1 assay (inositol phosphate turnover); assay type: cell-based; settings: IP1 accumulation in HEK293 cells stably expressing rat GPR120
T1 construct: expressed in transfected cells; host or cells: HEK293
T1 sequence (Q2AC31 1-361): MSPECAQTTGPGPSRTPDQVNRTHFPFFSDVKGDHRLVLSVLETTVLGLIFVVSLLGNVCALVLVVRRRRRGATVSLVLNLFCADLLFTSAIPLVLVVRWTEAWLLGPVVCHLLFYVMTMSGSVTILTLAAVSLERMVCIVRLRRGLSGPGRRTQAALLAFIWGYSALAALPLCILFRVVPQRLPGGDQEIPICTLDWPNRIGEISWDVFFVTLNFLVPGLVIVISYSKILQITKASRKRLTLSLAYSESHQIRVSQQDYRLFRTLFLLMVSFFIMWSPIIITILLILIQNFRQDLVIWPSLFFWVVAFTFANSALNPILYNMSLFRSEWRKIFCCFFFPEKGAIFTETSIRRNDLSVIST
Source text: The binding of small molecule agonists to the G-protein-coupled receptor GPR120 activates phospholipase C, and leads to the generation of inositol 1,4,5-trisphosphate (InsP3 or IP3). IP3 is subsequently de-phosphorylated to IP1, which accumulates in cells and is stable in the presence of lithium chloride.
In the present method, agonist-induced activation of the human and rat GPR120 receptor was monitored by measuring the accumulation of IP1 in CHO-K1 cells that were stably expressing the short form of human GPR120 (Accession #NM_001195755) or HEK293 cells stably expressing rat GPR120 (Accession #NM_001047088). Following agonist addition, GPR120 activation and subsequent accumulation of IP1 was measured using a homogeneous Time Resolved Fluorescence-based ELISA commercially available from CisBio (IP-one ELISA Kit). The IP-One ELISA was a competitive immunoassay which uses IP1 labeled with […] and a terbium cryptate-labeled anti-IP1 monoclonal antibody. […] The signal loss was then back calculated to IP1 concentration using an IP1 standard curve. Determination of IP1 concentration was a direct measure of GPR120 activation and was used to determine compound potency (EC50).
Human GPR120 stable cell-lines were generated in CHO cells. The expression plasmids were transfected using lipofectamine (Life Technologies) following manufacturer's instructions. Stable cell-lines were generated following drug selection and single cell cloning. Rat GPR120 stable cell-lines were generated in HEK cells using the Jump-In™ cell engineering platform (Life Technologies) following manufacturer's instructions. Stable cell-lines were generated following drug selection and single cell cloning.
The assay was performed in 384-well format. CHO cells stably expressing human GPR120 were plated at 20,000 cells per well in growth medium (DMEM/F12, 10% fetal calf serum). HEK293 cells stably expressing rat GPR120 were plated at […] per well in growth medium (DMEM, 10% fetal calf serum). Cell plates were then incubated 16 hours at 37 degrees in a 5% CO2 incubator. Measurement of Inositol Phosphate Turnover (IP1) was performed using the CisBio IP-One kit (Part number 62IPAPEB). After the 16 hour incubation, the growth media was removed by centrifugation using the BlueWasher (AusWasher GUI Ver. v1.0.1.8) Protocol #21-“Light Dry” and 10 μl of stimulation buffer (prepared as described in the kit) was added to each well. In a separate plate, compounds were diluted in DMSO (200-fold over the final concentration in the assay well) and 50 nl was acoustically transferred to the appropriate well in the assay cell plate. The plates were then incubated for 60 minutes at 37 degrees in a 5% CO2 incubator. 10 μl of detection buffer (also prepared as described in the IP-One kit) was added to each well and the plates were incubated at room temperature for 60 minutes in the dark. The plates were then read in a Perkin ElmerEnVision or equivalent reader able to measure FRET. Fluorescent ratio of emission at 665 and 620 nm was then converted to the IP1 concentration by back calculating from an IP1 standard curve prepared at the time of the assay. The data was normalized to % activity using a reference compound, and the EC50 values were determined using a standard 4-parameter fit.

human GPR120 = target: T2, human GPR120 (Homo sapiens, UniProt Q5NUL3); assay: Human GPR120 IP1 assay (inositol phosphate turnover); assay type: cell-based; settings: IP1 accumulation in CHO-K1 cells stably expressing the short form of human GPR120
T2 construct: expressed in transfected cells; host or cells: CHO-K1
T2 sequence (Q5NUL3 1-361): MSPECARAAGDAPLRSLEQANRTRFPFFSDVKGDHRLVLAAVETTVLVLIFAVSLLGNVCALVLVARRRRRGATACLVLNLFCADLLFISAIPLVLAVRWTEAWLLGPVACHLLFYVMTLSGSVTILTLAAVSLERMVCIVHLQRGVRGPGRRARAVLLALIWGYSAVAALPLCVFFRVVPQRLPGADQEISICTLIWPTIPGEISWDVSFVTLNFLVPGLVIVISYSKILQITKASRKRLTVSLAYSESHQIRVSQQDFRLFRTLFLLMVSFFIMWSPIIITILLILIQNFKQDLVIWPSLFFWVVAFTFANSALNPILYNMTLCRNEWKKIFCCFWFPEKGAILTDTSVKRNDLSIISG
In short: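 Human receptor (short form) was stably expressed in CHO-K1 cells and rat receptor in HEK293 cells. Cells were exposed to compound for 60 min at 37° C in kit stimulation buffer. IP1 was quantified by HTRF 665/620 nm ratio against a standard curve, normalized to a reference compound, with EC50 from 4-parameter fits.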

Structure (SMILES) | EC50 (rat GPR120) | EC50 (human GPR120)
Oc1cc(-c2ccc(O[C@H]3C[C@H](c4ccc(C(F)(F)F)cn4)C3)nc2)on1 [Example 23, 5-[6-({trans-3-[5-(trifluoromethyl)pyridin-2-yl]cyclobutyl}oxy)pyridin-3-yl]isoxazol-3-ol] | 0.1 µM | 
Oc1cc(-c2cnc(O[C@H]3C[C@@H](COc4cccc(F)c4)C3)cn2)on1 [Example 84, sodium 5-[5-({cis-3-[(3-fluorophenoxy)methyl]cyclobutyl}oxy)pyrazin-2-yl]isoxazol-3-olate] |  | 0.012 µM
Oc1cc(-c2cnc(O[C@H]3C[C@@H](COc4ccccc4F)C3)cn2)on1 [Example 85, sodium 5-[5-({cis-3-[(2-fluorophenoxy)methyl]cyclobutyl}oxy)pyrazin-2-yl]isoxazol-3-olate] |  | 0.025 µM
CCOc1cc([C@]2(F)C[C@@H](Oc3ccc(-c4cc(O)no4)cn3)C2)ccn1 [Example 86, sodium 5-(6-{[cis-3-(2-ethoxypyridin-4-yl)-3-fluoro-cyclobutyl]oxy}pyridin-3-yl)isoxazol-3-olate] |  | 0.026 µM
Oc1cc(-c2ccc(O[C@H]3C[C@](F)(c4ccnc(OC5CC5)c4)C3)nc2)on1 [Example 90] |  | 0.022 µM
CC1[C@@H](Oc2cnc(-c3cc(O)no3)cn2)C[C@H]1c1ccccc1 (stereo partly drawn) [Example 92, 5-(5-{[(1S,3R)-2-methyl-3-phenylcyclobutyl]oxy}pyrazin-2-yl)isoxazol-3-ol] |  | 0.017 µM
CC1(c2ccc(Cl)cc2)CC(Oc2cnc(-c3cc(O)no3)cn2)C1 (stereo not shown) [Example 93, 5-(5-{[3-(4-chlorophenyl)-3-methylcyclobutyl]oxy}pyrazin-2-yl)isoxazol-3-ol] |  | 0.215 µM
Oc1cc(-c2ccc(O[C@H]3C[C@@](F)(c4ccc(C(F)(F)F)cn4)C3)nc2)on1 [Example 97, 2-(trans-1-fluoro-3-{[5-(3-hydroxyisoxazol-5-yl)pyridin-2-yl]oxy}cyclobutyl)-5-(trifluoromethyl)pyridinium trifluoroacetate] |  | 0.022 µM
CC(C)Oc1cc([C@]2(F)C[C@@H](Oc3ccc(-c4cc(O)no4)cn3)C2)ccn1 [Example 99, sodium 5-[6-({cis-3-fluoro-3-[2-(propan-2-yloxy)pyridin-4-yl]cyclobutyl}oxy)pyridin-3-yl]isoxazol-3-olate] |  | 0.017 µM
CC(C)Oc1cc([C@]2(F)C[C@@H](Oc3cnc(-c4cc(O)no4)cn3)C2)ccn1 [Example 100, sodium 5-[5-({cis-3-fluoro-3-[2-(propan-2-yloxy)pyridin-4-yl]cyclobutyl}oxy)pyrazin-2-yl]isoxazol-3-olate] |  | 0.153 µM
Oc1cc(-c2cnc(O[C@H]3C[C@@](F)(c4ccc(Cl)cc4)C3)cn2)on1 [Example 108, 5-(5-{[trans-3-(4-chlorophenyl)-3-fluorocyclobutyl]oxy}pyrazin-2-yl)isoxazol-3-ol] |  | 0.014 µM
Oc1cc(-c2cnc(O[C@H]3C[C@@H](c4ccc(Cl)cc4)C3)nc2)on1 [Example 109, 5-(2-{[cis-3-(4-chlorophenyl)cyclobutyl]oxy}pyrimidin-5-yl)isoxazol-3-ol] |  | 0.011 µM
Oc1cc(-c2cnc(O[C@H]3C[C@@H](c4ccc(F)cc4)C3)nc2)on1 [Example 112, 5-(2-{[cis-3-(4-fluorophenyl)cyclobutyl]oxy}pyrimidin-5-yl)isoxazol-3-ol] |  | 0.647 µM
Oc1cc(-c2cnc(OC3CC(c4ccc5c(c4)OC(F)(F)O5)C3)nc2)on1 (stereo not shown) [Example 113, sodium 5-(2-{[3-(2,2-difluoro-1,3-benzodioxol-5-yl)cyclobutyl]oxy}pyrimidin-5-yl)isoxazol-3-olate] |  | 0.041 µM
Cc1ccc([C@H]2C[C@@H](Oc3ncc(-c4cc(O)no4)cn3)C2)c(F)c1 [Example 114, sodium 5-(2-{[cis-3-(2-fluoro-4-methylphenyl)cyclobutyl]oxy}pyrimidin-5-yl)isoxazol-3-olate] |  | 0.191 µM

Other lines, results leading:

EC50 (rat GPR120) | EC50 (human GPR120) | Structure (SMILES)
0.0015 µM |  | Oc1cc(-c2ccc(O[C@H]3C[C@H](c4ccc(F)cc4)C3)cc2)on1 [Example 12, 5-(4-{[trans-3-(4-fluorophenyl)cyclobutyl]oxy}phenyl)isoxazol-3-ol]
 | 0.0071 µM | Oc1cc(-c2ccc(O[C@H]3C[C@@H](COc4ccccc4)C3)nc2)on1 [Example 82, 5-(3-hydroxyisoxazol-5-yl)-2-{[cis-3-(phenoxymethyl)cyclobutyl]oxy}pyridinium chloride]
 | 0.017 µM | Oc1cc(-c2cnc(O[C@H]3C[C@@H](COc4ccccc4)C3)cn2)on1 [Example 83, sodium 5-(5-{[cis-3-(phenoxymethyl)cyclobutyl]oxy}pyrazin-2-yl)isoxazol-3-olate]
 | 0.015 µM | CCOc1cc([C@]2(F)C[C@H](Oc3ccc(-c4cc(O)no4)cn3)C2)ccn1 [Example 98, Sodium 5-(6-{[trans-3-(2-ethoxypyridin-4-yl)-3-fluorocyclobutyl]oxy}pyridin-3-yl)isoxazol-3-olate]
 | 0.538 µM | CC(C)Oc1cc([C@]2(F)C[C@H](Oc3cnc(-c4cc(O)no4)cn3)C2)ccn1 [Example 101, sodium 5-[5-({trans-3-fluoro-3-[2-(propan-2-yloxy)pyridin-4-yl]cyclobutyl}oxy)pyrazin-2-yl]isoxazol-3-olate]
 | 0.04 µM | Oc1cc(-c2ccc(O[C@H]3C[C@@](F)(c4ccc(C(F)F)c(F)c4)C3)nc2)on1 [Example 103, 5-[6-({trans-3-[4-(difluoromethyl)-3-fluorophenyl]-3-fluorocyclobutyl}oxy)pyridin-3-yl)isoxazol-3-ol]
 | 0.06 µM | Oc1cc(-c2ccc(O[C@H]3C[C@@](F)(c4ccc5c(c4)OC(F)(F)O5)C3)nc2)on1 [Example 104, ammonium 5-(6-{[trans-3-(2,2-difluoro-1,3-benzodioxol-5-yl)-3-fluorocyclobutyl]oxy}pyridin-3-yl)isoxazol-3-olate]
 | 0.237 µM | Oc1cc(-c2cnc(O[C@H]3C[C@@](F)(c4nc5ccccc5s4)C3)cn2)on1 [Example 105, ammonium 5-(5-{[trans-3-(1,3-benzothiazol-2-yl)-3-fluorocyclobutyl]oxy}pyrazin-2-yl)isoxazol-3-olate]
 | 0.091 µM | Oc1cc(-c2cnc(O[C@H]3C[C@](F)(c4cc(OC(F)(F)F)ccc4F)C3)cn2)on1 [Example 106, 5-[5-({cis-3-fluoro-3-[2-fluoro-5-(trifluoromethoxy)phenyl]cyclobutyl}oxy)pyrazin-2-yl]isoxazol-3-ol]
 | 0.215 µM | Oc1cc(-c2cnc(O[C@H]3C[C@@](F)(c4cc(C(F)(F)F)ccc4F)C3)cn2)on1 [Example 107, 5-[5-({trans-3-fluoro-3-[2-fluoro-5-(trifluoromethyl)phenyl]cyclobutyl}oxy)pyrazin-2-yl]isoxazol-3-ol]
